Source: patent US11026945B2, “Protein kinase RNA-like endoplasmic reticulum kinase (PERK) inhibitors for prevention and/or treatment of lung injury and/or inflammation” (THE TRUSTEES OF THE UNIVERSITY OF PENNSYLVANIA, priority 2016, dated 2021)
Like-named read-outs stand apart in the source and are kept apart here.

Tests used:
[1] = tested on: ISR (p-EIF2α, ATF4, CHOP) in lung tissue; assay: Lung tissue ISR western blot in rat VILI model; assay type: in vivo
Description: The right lung was harvested. […] For cytokine analysis serum was used.
Total protein from cells and lung tissue were extracted using RIPA lysis buffer. Total protein was quantified with Pierce […] (Thermo Fisher Scientific). Western blotting for phosphorylated (p) and total (t) forms of EIF2α, p- and t-IRE1α, p- and t-PERK, ATF4, CHOP and XBP1 was performed. B-actin was used as loading control (Santa Cruz Biotechnologies, Santa Cruz, Calif.). The following primary antibodies were used: p-EIF2α (Ser 51) and t-EIF2α rabbit monoclonal antibody (Cell Signaling, Danvers, Mass.), p-IRE1α (Ser 724) and t-IRE1α rabbit monoclonal antibody (Abcam, Cambridge, Mass.), ATF4 rabbit polyclonal antibody (Sigma-Aldrich), CHOP (F-168) mouse polyclonal antibody (Santa Cruz), XBP-1 rabbit monoclonal antibody (Abcam) and B-actin mouse polyclonal antibody (Santa Cruz). For immunoprecipitation of PERK, p-PERK (Thr 981) antibody (Santa Cruz) was used and p-PERK (Thr 980) and t-PERK were detected with rabbit monoclonal antibodies (Cell signaling). N=4-8 biological replicates per conditions were used in immunoblot studies. Immunoblots were scanned and bend densities were analyzed using Image J software.

[2] = tested on: rat model of VILI
Description: To establish the feasibility of translating the in vitro findings to in vivo, a rat model of VILI was used. Animals were pretreated via oral gavage with either 30 mg/kg PI or its vehicle for 4 hours prior to the start of the experiment. Rats were ventilated with 20 ml/kg tidal volume via tracheostomy for 4 hours without positive end expiratory pressure (PEEP) or a recruitment maneuver to induce injury. The lung tissue of ventilated animals was compared to spontaneously breathing controls. […] To confirm these findings, immunofluorescence analysis of thin cut sections was performed using a Zeiss LSM 880 laser scanning confocal microscope (FIG. 19).
Groups of animals (Sprague-Drawly rats, 250 to 300 g weight purchased from Charles River Laboratories, N=150)) were pretreated with one time dose of 3, 10 and 30 mg/kg of PI (GSK2606414) or its vehicle (0.1% TWEEN 80 in 0.5% […]) via oral gavage 4 hours before the start of the experiment. Subsequently, animals were randomized in the following conditions: • 1. Non-ventilated controls pretreated with drug vehicle (C/VC). These animals were sacrificed 8 hours post gavage. • 2. Low tidal volume ventilation group pretreated with vehicle (LTV/VC). These animals were anesthetized 4 hours post gavage and ventilated via tracheostomy for 4 hours with 6 ml/kg tidal volume, 3-5 cmH2O PEEP and lungs were recruited with 30 cmH2O pressure of air hourly. Animals were sacrificed at the end of 4 hours ventilation. This group will served as a second control to assess lung injury parameters in an optimized ICU care situation. • 3. High tidal volume ventilation group pretreated with vehicle (HTV/VC). Animals were ventilated with 20 ml/kg tidal volume without PEEP or recruitment maneuver to induce lung injury and sacrificed at the end of mechanical ventilation period. • 4. Controls with PI treatment (C/PI). Animals were sacrificed after 8 hours of PI treatment. • 5. High tidal volume mechanical ventilation with PI treatment (HTV/PI). Animals were sacrificed at the end of mechanical ventilation period. At the end of the experiment, lung tissue, BAL and serum was collected from all animals. To determine the optimal dose of PI in VILI, the following parameters were measured: BAL total protein measurement (BioRad Protein Assay, BioRad, Hercules, Calif.); lung tissue histology with hematoxylin-eosin (H&E) staining for lung injury scoring; BAL total and differential cell count; Serum and BAL cytokine analysis for IL-18 (R&D Systems, Minneapolis, Minn., USA); lung tissue was collected for future RNA and protein expression studies; blood pressure and heart rate recording (Coda Monitor, Kent Scientific, Torrington, Conn.); and/or animal mortality prior to the end of the experiment.
Rats (N=32) received PERK inhibitor GSK 2606414 (PI) or vehicle control (0.1% Tween 80+0.5% hydroxypropyl-methylcellulose (VC)) via oral gavage 4 hours before the start of mechanical ventilation in 2.5 ml volume bolus. Subsequently, animals were randomized to receive mechanical ventilation, or they were let to breathe spontaneously (N=8/group). For the mechanical ventilation protocol, rats were kept under general anesthesia for the entire procedure. Their breathing, cardiac function and neurological responses were continuously monitored to minimize pain and distress. Induction and maintenance anesthesia was performed with inhaled 2-4% isoflurane. If additional anesthesia was necessary to keep the animal in surgical plane at the time of induction, it was given an intraperitoneal injection of a mixture of ketamine (75-100 mg/kg) and xylazine (5-10 mg/kg). To minimize injectable anesthesia and improve analgesia use, the subcutaneous tissue of the tracheostomy site was injected with 1% lidocaine.

[3] = ventilated rats (VPI), 30 mg/kg oral gavage 4 hours before ventilation
[4] = CPI: spontaneously breathing rats, 30 mg/kg four hours prior to sacrifice
[5] = VPI: rats ventilated 4 hours with 20 ml/kg tidal volume, 30 mg/kg four hours prior to ventilation
[6] = ventilated rats, 30 mg/kg PI oral
[7] = ventilated rats, 30 mg/kg oral gavage

## Cn1cc(-c2ccc3c(c2)CCN3C(=O)Cc2cccc(C(F)(F)F)c2)c2c(N)ncnc21 [PI, 1-[5-(4-Amino-7-methyl-7H-pyrrolo[2,3-d]pyrimidin-5-yl)indolin-1-yl]-2-(3-trifluoromethylphenyl)ethanone]
[1]; spontaneously breathing controls (CPI), 30 mg/kg oral gavage
  p-EIF2α, ATF4 and CHOP in lung tissue: did not affect
[1]; [3]
  VILI-mediated phosphorylation of EIF2α in lung tissue: significantly reduced
  protein expression of ATF4 in lung tissue: significantly reduced
  protein expression of CHOP in lung tissue: significantly reduced
[2]; [4]
  Macrophage cell count: 0.77 ± 0.17 ×10^3 cells/ml BAL
  Neutrophil cell count: 0.003 ± 0.003 ×10^3 cells/ml BAL
  Total cell count: 1.44 ± 0.23 ×10^3 cells/ml BAL
[2]; VPI vs V, 30 mg/kg oral gavage
  FITC-labeled albumin permeability index: decreased
[2]; [5]
  Macrophage cell count: 1.28 ± 0.26 ×10^3 cells/ml BAL
  Neutrophil cell count: 0.03 ± 0.009 ×10^3 cells/ml BAL
  Total cell count: 1.75 ± 0.14 ×10^3 cells/ml BAL
[2]; dose titration 3, 10 and 30 mg/kg, oral gavage 4 hours before ventilation
  dose sufficient to inhibit VILI: 10 mg/kg
[2]; dose titration 3-30 mg/kg, experiment partially completed
  alveolocapillary permeability in VILI (FITC-labeled albumin extravasation), effect of increasing dose: gradual effect on reducing alveolocapillary permeability
[2]; spontaneously breathing animals, 30 mg/kg
  immunosuppression (BAL cell count): did not result in immunosuppression
[2]; [6]
  Ventilation-induced BAL total protein content: significantly reduced
  lung injury score: significantly reduced
[2]; [7]
  IL-18 BAL levels: reduced
  serum IL-18 levels: did not affect
